This is an account of results in ChEMBL document CHEMBL1201862, “PubChem BioAssay data set” (2004).

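The compound was tested at five concentrations on cells cultured in 96-well plates, with a 48-hour exposure period. Here, GI50 denotes the concentration required for 50% inhibition of growth.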 Calls of active or inactive are those of the source. Cut-off read from the data, not from the text of the source: active = GI50 up to about 1.1 µM and inactive = higher.

Some test systems named below: CCRF-CEM; COLO 205; HCT-116; HOP-62; MDA-N; MOLT-4; NCI-H226; NCI-H23; NCI-H460; OVCAR-3; OVCAR-5; OVCAR-8; RPMI-8226; RXF 393; SF-268; SF-539; SK-MEL-28; SK-MEL-5; SN12C; UACC-257.
Holding throughout (assay): NCI anticancer screen, dose series, 48 h

As for `CN(C)c1ccc(C2ON=C(c3ccccc3)N2C23CC4CC(CC(C4)C2)C3)cc1` (centres undefined), the GI50 in the test with CCRF-CEM is > 10 µM (inactive); in the test on COLO 205, > 10 µM (inactive); with HCT-116, > 10 µM (inactive); with HOP-62 it was > 10 µM (inactive); in the test with MDA-N it was > 10 µM (inactive); with MOLT-4 it was 5.87 µM (inactive). Besides, the GI50 in the test on NCI-H226, with NCI-H23, in the test on NCI-H460, in the test on OVCAR-3, with OVCAR-5 and in the test on OVCAR-8 was > 10 µM (inactive) in each case. Also, the GI50 with RPMI-8226, in the test on RXF 393, with SF-268, with SF-539, in the test with SK-MEL-28 and in the test with SK-MEL-5 was > 10 µM (inactive) throughout. Besides, the GI50 in the test on SN12C and with UACC-257 was > 10 µM (inactive) each time.
Consider `Cc1nc2sc(CCl)nn2c(=O)c1Cl`, for which the GI50 in the test on CCRF-CEM was 3.61 µM (inactive); in the test with COLO 205, 16.7 µM (inactive); in the test on HCT-116, 13.4 µM (inactive); in the test with HOP-62, 17.6 µM (inactive); with MDA-N, 11.4 µM (inactive); in the test with MOLT-4, 6.03 µM (inactive). For the same molecule, the GI50 was 14.9 µM (inactive) with NCI-H226; 17.4 µM (inactive) in the test on NCI-H23; 10.6 µM (inactive) with NCI-H460; 15.9 µM (inactive) with OVCAR-3; 15.1 µM (inactive) with OVCAR-5; 14 µM (inactive) in the test on OVCAR-8. Moreover, the GI50 is 5.62 µM (inactive) with RPMI-8226; 4.57 µM (inactive) with RXF 393; 14.2 µM (inactive) in the test on SF-268; 16.7 µM (inactive) in the test on SF-539; 12.8 µM (inactive) in the test with SK-MEL-28; 5.07 µM (inactive) in the test with SK-MEL-5. Besides, the GI50 in the test on SN12C and in the test on UACC-257 was 12.3 µM (inactive) throughout.
With `C/C(=C\c1ccccc1)C(=O)NCc1ccc(C(=O)NCCc2ccccc2)cc1`, the GI50 in the test with CCRF-CEM is > 100 µM (inactive); in the test with COLO 205, > 100 µM (inactive); in the test on HCT-116, 43.4 µM (inactive); in the test with HOP-62 it was 3 µM (inactive); in the test with MDA-N, > 100 µM (inactive); with MOLT-4, > 100 µM (inactive). Moreover, the GI50 in the test on NCI-H226 was 17.9 µM (inactive); with NCI-H23, > 52.4 µM (inactive); in the test on NCI-H460, > 100 µM (inactive); in the test with OVCAR-3 it was > 100 µM (inactive); in the test with OVCAR-5, > 96.2 µM (inactive); with OVCAR-8, 3.47 µM (inactive). Besides, the GI50 in the test with RPMI-8226 was > 100 µM (inactive); in the test with RXF 393, 13.8 µM (inactive); in the test on SF-268 it was 4.37 µM (inactive); in the test on SF-539, 10.1 µM (inactive); with SK-MEL-28, > 100 µM (inactive); in the test with SK-MEL-5, > 100 µM (inactive). The GI50 with SN12C was 21.2 µM (inactive); in the test on UACC-257, > 100 µM (inactive).
Regarding `CCC(C)C1=C(O)[N+]2([O-])Oc3ccc(-c4c(O)c(O)c(-c5ccc(O)cc5)c(OC(C)=O)c4OC(C)=O)cc3OC2(C(C)CC)C(=O)N1O` (centres undefined), the GI50 with CCRF-CEM is 1.88 µM (inactive); in the test on COLO 205, > 50 µM (inactive); in the test on HCT-116 it was 18.2 µM (inactive); with MDA-N it was 17.1 µM (inactive); in the test on MOLT-4 it was 43.8 µM (inactive); in the test on NCI-H226, > 50 µM (inactive). Besides, the GI50 with NCI-H23, in the test on NCI-H460, with OVCAR-3, with OVCAR-5, in the test on OVCAR-8 and with RPMI-8226 was > 50 µM (inactive) in each case. Also, the GI50 with RXF 393, in the test on SF-268, with SF-539, in the test on SK-MEL-28, in the test with SK-MEL-5 and in the test with SN12C was > 50 µM (inactive) in each case. In addition, the GI50 in the test with UACC-257 was > 50 µM (inactive).
For the molecule `C/C(=N\Nc1nc2ccccc2n1C)c1ccncn1`, the GI50 in the test on CCRF-CEM was 0.0618 µM (active); in the test with COLO 205 it was < 0.01 µM (active); in the test with HCT-116, < 0.01 µM (active); in the test on HOP-62, 5.38 µM (inactive); in the test with MDA-N, 0.929 µM (active); in the test on MOLT-4 it was < 0.01 µM (active). Besides, the GI50 was 0.29 µM (active) in the test on NCI-H226; 0.0402 µM (active) in the test on NCI-H23; 0.23 µM (active) in the test with NCI-H460; 1.52 µM (inactive) with OVCAR-5; < 0.0238 µM (active) in the test on OVCAR-8; 0.0202 µM (active) with RPMI-8226. The GI50 was 1.55 µM (inactive) with RXF 393; 0.0762 µM (active) in the test with SF-268; 0.313 µM (active) in the test on SF-539; 0.0378 µM (active) in the test on SK-MEL-28; 0.102 µM (active) with SK-MEL-5; 0.0243 µM (active) in the test on SN12C. Besides, the GI50 with UACC-257 is 0.0382 µM (active).
As for `Clc1ccc(-c2cn3c(nc4ccccc43)c(/C=C/c3cccs3)n2)cc1`, the GI50 in the test on CCRF-CEM is 45 µM (inactive); in the test on COLO 205 it was > 100 µM (inactive); in the test on HCT-116 it was 97.9 µM (inactive); with HOP-62 it was > 100 µM (inactive); in the test with MDA-N it was > 100 µM (inactive); with NCI-H226, > 100 µM (inactive). Besides, the GI50 was 52.5 µM (inactive) with NCI-H23; 67.8 µM (inactive) with NCI-H460; > 100 µM (inactive) in the test on OVCAR-3; > 100 µM (inactive) in the test with OVCAR-5; 36.5 µM (inactive) in the test with RPMI-8226; > 100 µM (inactive) with RXF 393. Besides, the GI50 in the test on SF-268 is 72.8 µM (inactive); in the test with SF-539 it was > 100 µM (inactive); with SK-MEL-28 it was > 100 µM (inactive); in the test on SK-MEL-5, > 100 µM (inactive); with SN12C, > 100 µM (inactive); in the test with UACC-257 it was 52.6 µM (inactive).
With `Cc1nc(C(N)=S)sc1C(=O)CC(=O)C(=O)Nc1ccc(Br)cc1`, the GI50 in the test with CCRF-CEM, in the test with HCT-116, with HOP-62, with MDA-N, in the test with NCI-H226 and with NCI-H23 was > 100 µM (inactive) throughout. In addition, the GI50 in the test with NCI-H460, in the test on OVCAR-3, with OVCAR-5, in the test with OVCAR-8, in the test on RPMI-8226 and in the test with RXF 393 was > 100 µM (inactive) each time. Besides, the GI50 in the test with SF-268, in the test with SF-539, in the test with SK-MEL-28, with SK-MEL-5, in the test on SN12C and with UACC-257 was > 100 µM (inactive) each time.
Turning to `C=C(C(=O)O)[C@@H]1C[C@@H](OC(C)=O)[C@]2(C)CC/C=C(\C)CCC[C@H](C)[C@H](O)[C@@H]1O2`, the GI50 was 22.4 µM (inactive) in the test on CCRF-CEM; 33.1 µM (inactive) in the test with COLO 205; 52.8 µM (inactive) with HCT-116; 24.5 µM (inactive) in the test with MDA-N; 24.7 µM (inactive) in the test with MOLT-4; 14.9 µM (inactive) in the test with NCI-H226. The GI50 with NCI-H460 is 66.4 µM (inactive); in the test with OVCAR-3, 37.4 µM (inactive); in the test on OVCAR-5, > 100 µM (inactive); with OVCAR-8, 27.5 µM (inactive); in the test with RPMI-8226, 17 µM (inactive); in the test with RXF 393 it was 18.5 µM (inactive). In addition, the GI50 in the test on SF-268 is > 100 µM (inactive); in the test on SF-539, 18 µM (inactive); in the test on SK-MEL-28, 77.4 µM (inactive); with SK-MEL-5 it was 30.2 µM (inactive); in the test on SN12C it was 60.4 µM (inactive); in the test on UACC-257 it was 47 µM (inactive).
Turning to `COc1ccc(-n2nnc3c(C#N)c(-c4ccccc4)c(C)n3c2=O)cc1`, the GI50 was 8.39 µM (inactive) in the test with CCRF-CEM; 33.7 µM (inactive) in the test with COLO 205; 43.2 µM (inactive) in the test on HCT-116; 35.4 µM (inactive) with HOP-62; > 100 µM (inactive) in the test with MDA-N; 85.1 µM (inactive) with NCI-H226. Besides, the GI50 was 80.4 µM (inactive) with NCI-H23; 51.4 µM (inactive) in the test on NCI-H460; 28.2 µM (inactive) with OVCAR-3; > 100 µM (inactive) with OVCAR-5; 27.4 µM (inactive) with OVCAR-8; 26.1 µM (inactive) in the test with RPMI-8226. Moreover, the GI50 was 28.4 µM (inactive) in the test on RXF 393; 83.4 µM (inactive) in the test on SF-268; 31.7 µM (inactive) with SF-539; > 100 µM (inactive) in the test with SK-MEL-28; 14.8 µM (inactive) in the test on SK-MEL-5; 62.5 µM (inactive) in the test on SN12C. In addition, the GI50 in the test on UACC-257 is 85.5 µM (inactive).
Regarding `Cn1c2ccccc2c(=O)c2c(O)cc3c(c21)C1OCC(C)(O)C1O3` (centres undefined), the GI50 in the test with CCRF-CEM was 23.8 µM (inactive); in the test on COLO 205, 51.1 µM (inactive); in the test with HCT-116 it was 37.8 µM (inactive); with HOP-62, 23.6 µM (inactive); in the test on MDA-N it was > 100 µM (inactive); with MOLT-4, 28.2 µM (inactive). The GI50 in the test with NCI-H226 was 10.5 µM (inactive); in the test with NCI-H460, > 10 µM (inactive); with OVCAR-5, 19.5 µM (inactive); in the test on OVCAR-8, 34 µM (inactive); in the test on RPMI-8226 it was 85.7 µM (inactive); with RXF 393, 22.5 µM (inactive). Also, the GI50 with SF-268 was 26.6 µM (inactive); in the test on SF-539, 21.6 µM (inactive); with SK-MEL-28, 83.9 µM (inactive); in the test with SK-MEL-5 it was 50.2 µM (inactive); in the test with SN12C, 58.2 µM (inactive); in the test on UACC-257 it was > 100 µM (inactive).
